Data on two substances can be found in PMC5012908 (Acta biomaterialia, 2016).

The nature of data set [1]: Circular dichroism of β-peptide solutions. The conditions noted are these: 0.1 mM peptide, 20 °C, consistent with 14-helicity without aggregation. Type of data set: physicochemical. On the technique in general: Circular dichroism is widely used to follow secondary structure.
For data set [2] the following is noted: read-out: IC50 (antifungal); isotonic glucose phosphate buffer; cited from earlier work.

Turning to “Coumarin-linker-(ACHC-β^3hVal-β^3hLys)3 [β-peptide 1]”, the “CD minimum in methanol” value in data set [1] came to 214 nm. Regarding magainin-2, the IC50 in data set [2] was 300 nM.

By IC50 is commonly meant the concentration that gives 50% inhibition.
